Data from US12653800B2, “Small molecule inhibitors of TLR2 signaling” (University of Maryland, Baltimore, priority 2015, dated 2026).
“Also recorded” adds a separate entry of the source.

Columns and labels:
[1] = molecular target: TLR2/1 (Mus musculus, UniProt Q9QUN7); test: P3C-induced inflammation in vivo in C57BL/6J mice; set-up: tissue The Jackson Laboratory; host or cells: whole animal; liver RNA and serum analysed; details: C29L i.p. 1.314 mM/g twice, P3C 100 μg i.p.
Method: FIG. 4. C29L inhibits TLR2/1-induced inflammation in vivo. C57BL/6J mice were pretreated i.p. with vehicle (water) or C29L (1.314 mM/g) for 1 hr. Mice received a second pretreatment i.p. with vehicle (water) or C29L (1.314 mM/g) and subsequently were challenged i.p. with PBS or P3C (100 μg) and sacrificed 1 hr or 3 hrs later. Liver RNA (A) was analyzed by qRT-PCR and serum concentrations (B) were analyzed by Multiplex (*, p≤0.05; ***, p≤0.001; ****, p≤0.0001). Panels A and B, n=6 (the combined data from two separate experiments) for each treatment group.
All animal studies were carried out with institutional approval. Female C57BL/6J mice (6-8 weeks old) were purchased from The Jackson Laboratory (Bar Harbor, ME) and (n=3 mice/group) received PBS, H2O, or C29L (in H2O) i.p. (1.314 mM/g). After 1 h, mice received a second injection of PBS, H2O, or C29L i.p. (1.314 mM/g) and were subsequently challenged i.p. with PBS or P3C (100 μg) for 1 or 3 h. Mice were bled and sera was prepared. Livers were also extracted for qRT-PCR analysis.

[2] = test system: HEK-TLR2 stable transfectants; test: LDH release cytotoxicity assay; format: cell-based, human; details: C29 10 μM or 50 μM
Method: FIG. 7. C29 is not cytotoxic to HEK-TLR2 stable transfectants. Cells were pretreated for 1 hr with media, vehicle (65 μM NaOH), or C29 (10 μM or 50 μM) and then stimulated with P3C (200 ng/mL), P2C (200 ng/mL), or hTNF-α (300 ng/mL) for 1 hr in the presence of media, vehicle, or C29. Supernatants of cell cultures were collected and analyzed for LDH release as a measure of cell cytotoxicity with Triton X-lysed cells serving as the positive control. LDH release is representative of 1 of 2 independent experiments carried out in duplicate.
Cellular cytotoxicity was determined by measuring lactate dehydrogenase (LDH) activity released in the media after treatment with TLR agonist or TNF-α in the presence of media, vehicle (NaOH), or C29 using the CytoTox 96 nonradioactive cytotoxicity assay (Promega, Madison, WI) and quantified by measuring wavelength absorbance at 490 nm. Treatment of cells with Triton X-100 served as the positive control.

[3] = molecular target: TLR2/6 (Homo sapiens, UniProt O60603); test: IL-1β mRNA in THP-1 cells stimulated with TLR2/6 agonists (P2C, zymosan); format: cell-based; set-up: expressed in transfected cells; details: C29 50, 100 or 200 μM
Sequence of TLR2/6 (O60603 21-784): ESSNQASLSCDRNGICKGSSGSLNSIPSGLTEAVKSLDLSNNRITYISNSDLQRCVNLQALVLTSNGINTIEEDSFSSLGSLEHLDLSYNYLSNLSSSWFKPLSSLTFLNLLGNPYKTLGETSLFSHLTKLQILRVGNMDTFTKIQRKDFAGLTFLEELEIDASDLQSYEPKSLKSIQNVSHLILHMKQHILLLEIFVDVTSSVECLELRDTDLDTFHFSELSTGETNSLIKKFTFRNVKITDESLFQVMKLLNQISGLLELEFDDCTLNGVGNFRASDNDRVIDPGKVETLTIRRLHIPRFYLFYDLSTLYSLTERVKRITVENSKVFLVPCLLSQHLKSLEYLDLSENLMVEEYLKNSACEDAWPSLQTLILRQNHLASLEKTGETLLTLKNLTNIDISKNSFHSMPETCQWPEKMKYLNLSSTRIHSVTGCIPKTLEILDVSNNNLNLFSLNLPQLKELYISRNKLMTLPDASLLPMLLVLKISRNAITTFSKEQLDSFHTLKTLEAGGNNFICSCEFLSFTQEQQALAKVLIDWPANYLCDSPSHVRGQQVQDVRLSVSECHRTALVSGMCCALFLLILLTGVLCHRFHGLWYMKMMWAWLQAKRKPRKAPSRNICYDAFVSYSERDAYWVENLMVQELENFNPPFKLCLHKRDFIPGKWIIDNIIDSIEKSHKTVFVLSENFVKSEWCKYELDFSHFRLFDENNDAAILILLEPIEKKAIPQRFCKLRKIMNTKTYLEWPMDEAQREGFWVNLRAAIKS

[4] = molecular target: T1, interaction of TLR2 with MyD88 (Homo sapiens, UniProt O60603); test: Co-immunoprecipitation of TLR2 with MyD88 in THP-1 cells; format: cell-based; details: C29 150 μM, P3C 50 ng/mL, 15 and 30 minutes, statistical significance at 30 minutes
T1 construct: host or cells: THP-1 cells, PMA 20 ng/mL for 24 hrs, P3C-stimulated
T1 sequence (O60603 21-784): as above
Method: FIG. 2. C29 inhibits ligand-induced interaction of TLR2 with MyD88 and blocks MAPK and NF-κβ activation. (A) THP-1 cells were cultured in the presence of PMA (20 ng/mL) for 24 hrs and washed twice in media. THP-1 human monocytes were pretreated with media, vehicle (195 μM NaOH), or C29 (150 μM) for 1 hr and treated with P3C (50 ng/mL) in the presence of media, vehicle, or C29 for 15 or 30 min. Co-immunoprecipitation (IP) was carried out using anti-MyD88 antibody and Western analysis (IB) using whole cell lysates. (B) Densitometry analysis (mean±SEM) of 3 independent experiments as shown in (A). (C) Murine peritoneal macrophages were pretreated for 1 hr with media, vehicle (65 μM NaOH), or C29 (50 μM) and treated with P3C (50 ng/mL) for 5-30 min in the presence of media, vehicle, or C29. IB was performed using whole cell lysates and antibodies directed against the signaling intermediates indicated. β-actin was probed as a loading protein. […]
Cells were treated and washed once with 1×PBS and lysed using buffer containing 20 mM HEPES (pH 7.4), 150 mM NaCl, 1 mM EDTA, 1 mM EGTA (pH 8.0), 50 mM NaF, 0.5% Triton X-100, 1 mM Na3VO4, 1 mM DTT, 1 mM PMSF, and protease inhibitor (Roche Applied Science, Indianapolis, IN). Cells were harvested and protein was quantified using BCA Protein assay reagents (Thermo Scientific/Pierce, Rockford, IL). […]

[5] = test system: TNF-α-induced signaling; test: hTNF-α-induced IL-8 mRNA in HEK-TLR2 stable transfectants; format: cell-based, human; details: C29 10 μM or 50 μM, hTNF-α 300 ng/mL 1 hr
[6] = molecular target: TLR2 (Mus musculus, UniProt Q9QUN7); test: Cytokine mRNA in murine peritoneal macrophages (PEC) stimulated with bacterial TLR2 agonists; format: cell-based; details: C29 50 μM
Sequence of TLR2 (Q9QUN7 25-784): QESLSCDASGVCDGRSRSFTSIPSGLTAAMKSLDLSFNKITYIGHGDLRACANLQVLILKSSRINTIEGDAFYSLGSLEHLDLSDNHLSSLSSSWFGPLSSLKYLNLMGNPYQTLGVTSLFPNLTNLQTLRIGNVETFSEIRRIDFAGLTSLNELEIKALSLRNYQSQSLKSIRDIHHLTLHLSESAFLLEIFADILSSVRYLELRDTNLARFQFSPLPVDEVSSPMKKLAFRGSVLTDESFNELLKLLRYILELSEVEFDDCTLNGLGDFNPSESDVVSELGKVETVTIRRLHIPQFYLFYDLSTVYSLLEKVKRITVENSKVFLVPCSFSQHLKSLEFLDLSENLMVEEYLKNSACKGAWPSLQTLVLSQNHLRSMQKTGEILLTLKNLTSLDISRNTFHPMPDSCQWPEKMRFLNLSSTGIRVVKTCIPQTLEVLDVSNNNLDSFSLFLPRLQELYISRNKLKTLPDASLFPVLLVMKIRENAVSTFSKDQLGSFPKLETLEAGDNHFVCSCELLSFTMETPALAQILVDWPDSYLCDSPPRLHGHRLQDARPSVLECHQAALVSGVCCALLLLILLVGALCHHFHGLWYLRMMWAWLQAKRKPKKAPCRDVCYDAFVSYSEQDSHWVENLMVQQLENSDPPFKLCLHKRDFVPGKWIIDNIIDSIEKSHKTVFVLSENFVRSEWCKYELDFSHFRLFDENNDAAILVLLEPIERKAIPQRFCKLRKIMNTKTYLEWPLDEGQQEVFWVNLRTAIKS

[7] = molecular target: TLR2/1 (Homo sapiens, UniProt O60603); test: IL-1β mRNA in THP-1 cells stimulated with TLR2/1 agonists (P3C, S. aureus LTA); format: cell-based; set-up: expressed in transfected cells; details: C29 50, 100 or 200 μM
Sequence of TLR2/1 (Homo sapiens, UniProt O60603) (O60603 21-784): as the sequence (O60603 21-784) above

[8] = murine macrophages, MOI=0.7, 4 hrs
[9] = primary murine macrophages (PEC), MOI=50, 4 hrs

Sequence of TLR2/1 (Mus musculus, UniProt Q9QUN7) (Q9QUN7 25-784): as the sequence (Q9QUN7 25-784) above

## COc1cccc(C=O)c1O [Compound C29L, ortho-vanillin]
[1]; 1 or 3 hrs
  P3C-induced IL-12 p40 liver cytokine mRNA: significantly blocked
  P3C-induced IL-12 p40 serum protein: significantly blocked
  P3C-induced TNF-α liver cytokine mRNA: significantly blocked
  P3C-induced TNF-α serum protein: significantly blocked
[1]; 3 hrs
  P3C-induced IL-12 p40 at the later time point: significant inhibitory effect

## COc1cccc(/C=N/c2cccc(C(=O)O)c2C)c1O [Compound C29]
[2]
  cytotoxicity (LDH release): no effect; also recorded: not cytotoxic
[3]; P2C 50 ng/mL, 1 h and 4 h
  P2C-induced IL-1β gene expression: inhibited P3C- and P2C-induced IL-1β gene expression significantly
[3]; zymosan 10 μg/mL 4 hrs
  zymosan-induced IL-1β mRNA: blocked zymosan- and LTA SA-induced IL-1β mRNA dose-dependently
[4]
  interaction between endogenous TLR2 and MyD88 (co-IP): diminished the interaction
[5]
  TNF-α-induced signaling (IL-8 mRNA): no effect
[6]; [8]
  live S. pneumoniae-induced IL-1β mRNA: inhibited
  live S. pneumoniae-induced IL-12 p40 mRNA: inhibited
[6]; [9]
  HKSA-mediated IL-1β mRNA: significantly blocked
  heat-killed S. pneumoniae (HKSP)-mediated IL-1β mRNA: significantly blocked
[7]; P3C 50 ng/mL, 1 h and 4 h
  P3C-induced IL-1β gene expression: inhibited P3C- and P2C-induced IL-1β gene expression significantly
[7]; S. aureus LTA 1 μg/mL 4 hrs
  LTA SA-induced IL-1β mRNA: blocked zymosan- and LTA SA-induced IL-1β mRNA dose-dependently
